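Test compounds were applied to cells in 96-well plates for 48 hours at 5 doses. GI50: concentration for 50% inhibition of growth. TGI denotes the concentration required for complete inhibition of growth.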 Where only a bound is given, the exact number is not on record here.

Test systems include NCI-H522 lung; HT29 colon; MALME-3M melanoma; SK-OV-3 ovarian; NCI/ADR-RES ovarian; UACC-62 melanoma; SK-MEL-28 melanoma; CCRF-CEM leukemia; SF-268 CNS; MCF7 breast.
Holding throughout (assay): NCI anticancer screen, dose series, 48 h

For `CS(=O)(=O)CCNCc1coc(-c2ccc3ncnc(Nc4ccc(OCc5ccccc5)cc4)c3c2)c1`, the GI50 was 3.32 µM in the assay on NCI-H522 lung; 3.4 µM in the assay with HT29 colon; 4.71 µM in the assay with MALME-3M melanoma; 1.71 µM with SK-OV-3 ovarian; 9.47 µM with NCI/ADR-RES ovarian; 4.31 µM in the assay with UACC-62 melanoma. In addition, the GI50 with SK-MEL-28 melanoma was 3.83 µM; in the assay with CCRF-CEM leukemia, 4.92 µM; in the assay with SF-268 CNS, 3.35 µM; in the assay on MCF7 breast, 3.77 µM. The TGI was 6.9 µM in the assay on NCI-H522 lung; 7.77 µM with HT29 colon; 9.57 µM with MALME-3M melanoma; above 16.2 µM in the assay on SK-OV-3 ovarian; above 25 µM with NCI/ADR-RES ovarian; 8.18 µM in the assay with UACC-62 melanoma. For the same compound, the TGI with SK-MEL-28 melanoma was 7.49 µM; in the assay on CCRF-CEM leukemia, 14.5 µM; in the assay with SF-268 CNS, 7.5 µM; in the assay with MCF7 breast it was 12.3 µM.

With `CN(C)CCOc1ccc([N+](=O)[O-])c2cccnc12`, the TGI with NCI-H522 lung, in the assay on HT29 colon, in the assay with MALME-3M melanoma, with SK-OV-3 ovarian, with NCI/ADR-RES ovarian and in the assay with UACC-62 melanoma was above 100 µM each time. For the same compound, the TGI in the assay on SK-MEL-28 melanoma, in the assay with CCRF-CEM leukemia, with SF-268 CNS and with MCF7 breast was above 100 µM in each case.

In the case of `O=C1C=CC(=O)C2C1C1(Cl)C(Cl)=C(Cl)C2(Cl)C1(Cl)Cl` (stereo not given), the GI50 with NCI-H522 lung was 3.73 µM; in the assay with HT29 colon, 7.54 µM; in the assay with MALME-3M melanoma, 3.23 µM; with SK-OV-3 ovarian, 7.85 µM; with NCI/ADR-RES ovarian, 3.75 µM; with UACC-62 melanoma, 5.19 µM. Besides, the GI50 is 9.63 µM in the assay on SK-MEL-28 melanoma, 3.76 µM in the assay on CCRF-CEM leukemia, 3.16 µM in the assay with SF-268 CNS and 8.55 µM with MCF7 breast. In addition, the TGI is 13.1 µM in the assay on NCI-H522 lung; 23.9 µM in the assay with HT29 colon; 15.8 µM in the assay on MALME-3M melanoma; 21.1 µM in the assay on SK-OV-3 ovarian; above 100 µM in the assay on NCI/ADR-RES ovarian; 19.2 µM with UACC-62 melanoma. For the same compound, the TGI in the assay on SK-MEL-28 melanoma is 21.8 µM; in the assay on CCRF-CEM leukemia, above 100 µM; in the assay with SF-268 CNS it was 14.8 µM; in the assay with MCF7 breast it was 31.1 µM.

Consider `COC(=O)c1ccc2[nH]c(O)c(C(=Nc3ccc(N(C)C(=O)CN4CCN(C)CC4)cc3)c3ccc4c(c3)OCO4)c2c1`, for which the GI50 was 0.859 µM with NCI-H522 lung; 0.553 µM in the assay with HT29 colon; 0.895 µM in the assay with MALME-3M melanoma; 0.197 µM with SK-OV-3 ovarian; 10.7 µM with NCI/ADR-RES ovarian; 2.1 µM with UACC-62 melanoma. The GI50 is 1.21 µM in the assay with SK-MEL-28 melanoma, 0.388 µM with CCRF-CEM leukemia, 0.929 µM in the assay on SF-268 CNS and 0.327 µM with MCF7 breast. In addition, the TGI with NCI-H522 lung was 3.66 µM; with HT29 colon, above 27.8 µM; in the assay on MALME-3M melanoma, 2.29 µM; in the assay with SK-OV-3 ovarian, 1.19 µM; with NCI/ADR-RES ovarian, 34 µM; with UACC-62 melanoma, 6.86 µM. The TGI in the assay on SK-MEL-28 melanoma was determined as 2.92 µM; with CCRF-CEM leukemia, 6.25 µM; in the assay with SF-268 CNS, 3.86 µM; in the assay on MCF7 breast, 1.8 µM.

As for `COc1cccc2c1C(=N)c1c(O)c3c(c(O)c1C2=O)C[C@@](O)(C(C)=O)C[C@@H]3O[C@H]1C[C@H](N)[C@H](O)[C@H](C)O1`, the GI50 is 0.256 µM with NCI-H522 lung; 0.316 µM in the assay on HT29 colon; 0.391 µM in the assay with MALME-3M melanoma; 0.288 µM with SK-OV-3 ovarian; 45.3 µM in the assay on NCI/ADR-RES ovarian; 0.248 µM with UACC-62 melanoma. The GI50 with SK-MEL-28 melanoma is 2.58 µM; with CCRF-CEM leukemia, 0.0829 µM; in the assay with SF-268 CNS it was 0.339 µM; in the assay with MCF7 breast it was 0.0379 µM. The TGI in the assay with NCI-H522 lung was 1.5 µM; with HT29 colon it was 2.09 µM; in the assay with MALME-3M melanoma, 3.24 µM; with SK-OV-3 ovarian, 2.6 µM; in the assay with NCI/ADR-RES ovarian, above 100 µM; in the assay on UACC-62 melanoma, 1.79 µM. The TGI with SK-MEL-28 melanoma came to 13.9 µM; with CCRF-CEM leukemia it was 3.76 µM; with SF-268 CNS, 3.62 µM; with MCF7 breast it was 5.2 µM.

Consider `O=C(/C=C/c1ccccc1)Nc1ncc(Cc2ccccc2Cl)s1`, for which the GI50 is 0.474 µM in the assay with NCI-H522 lung; 0.331 µM with HT29 colon; 0.365 µM with MALME-3M melanoma; 0.79 µM in the assay with SK-OV-3 ovarian; 0.325 µM in the assay on NCI/ADR-RES ovarian; 0.326 µM in the assay on UACC-62 melanoma. For the same compound, the GI50 in the assay with SK-MEL-28 melanoma is 1.5 µM; in the assay on CCRF-CEM leukemia, 0.36 µM; with SF-268 CNS, 1.8 µM; in the assay on MCF7 breast, 0.311 µM. In addition, the TGI in the assay on NCI-H522 lung, in the assay with HT29 colon, with MALME-3M melanoma, in the assay on SK-OV-3 ovarian, in the assay on NCI/ADR-RES ovarian and with UACC-62 melanoma was above 100 µM in each case. Also, the TGI in the assay with SK-MEL-28 melanoma, in the assay with CCRF-CEM leukemia, with SF-268 CNS and in the assay on MCF7 breast was above 100 µM each time.

Turning to `O=C1C(=O)c2ccccc2C(O)=C1C(C1=C(O)c2ccccc2C(=O)C1=O)c1ccc(Cl)cc1`, the TGI in the assay on NCI-H522 lung was 27.3 µM; with HT29 colon, 20.9 µM; in the assay with MALME-3M melanoma it was 12 µM; in the assay with SK-OV-3 ovarian, 33.5 µM; with NCI/ADR-RES ovarian, above 77.5 µM; with UACC-62 melanoma, 23.5 µM. Moreover, the TGI was 55.5 µM in the assay on SK-MEL-28 melanoma, above 46 µM in the assay with CCRF-CEM leukemia, 59.8 µM in the assay on SF-268 CNS and 11.4 µM in the assay with MCF7 breast.

(Values after PubChem BioAssay (NCI).)
